Target: human GPR17 short isoform (Homo sapiens (Human), UniProt Q13304)
Assay: GPR17 cAMP assay (hGPR17 cAMP, antagonist mode against EC80 of MDL29,951)
Format: cell-based
Conditions: CHO-K1 cells stably expressing human GPR17 short isoform; EC80 of agonist MDL29,951; forskolin 15 μM
Procedure, shortened: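 CHO-K1 cells stably expressing untagged human GPR17 short isoform, 10,000/well in HBSS/10 mM HEPES/0.1% BSA pH 7.4. Compounds added with EC80 MDL29,951 and 0.5 mM IBMX, then 15 μM forskolin 5 min later, 30 min at room temperature; cAMP by TR-FRET, normalized to reference antagonist, sigmoidal fit.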

human GPR17 short isoform, sequence (Q13304 29-367): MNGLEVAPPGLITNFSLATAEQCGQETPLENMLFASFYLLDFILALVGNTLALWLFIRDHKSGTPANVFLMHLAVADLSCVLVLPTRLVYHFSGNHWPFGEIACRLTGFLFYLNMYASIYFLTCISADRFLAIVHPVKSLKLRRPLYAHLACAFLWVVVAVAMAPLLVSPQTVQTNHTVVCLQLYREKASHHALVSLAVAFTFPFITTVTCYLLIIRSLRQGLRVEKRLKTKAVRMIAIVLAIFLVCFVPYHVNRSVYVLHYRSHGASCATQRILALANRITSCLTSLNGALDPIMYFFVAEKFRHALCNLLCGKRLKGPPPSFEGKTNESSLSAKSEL

SMILES	IC50
COc1nc(NS(=O)(=O)c2c[nH]c3cc(Cl)ccc23)nc(C2CC2)c1OCC(F)F [Example 19, 6-chloro-N-[4-cyclopropyl-5-(2,2-difluoroethoxy)-6-methoxy-pyrimidin-2-yl]-1H-indole-3-sulfonamide]	49 nM
COc1nc(NS(=O)(=O)c2c[nH]c3c2ccc2cccnc23)nc(OC)c1OCC(F)F [Example 168, N-[5-(2,2-difluoroethoxy)-4,6-dimethoxy-pyrimidin-2-yl]-1H-pyrrolo[3,2-h]quinoline-3-sulfonamide]	26 nM
COc1nc(NS(=O)(=O)c2c[nH]c3c(F)c(Br)ccc23)nc(OC)c1OCC#N [Example 244, 6-bromo-N-[5-(cyanomethoxy)-4,6-dimethoxy-pyrimidin-2-yl]-7-fluoro-1H-indole-3-sulfonamide]	16 nM
COc1nc(NS(=O)(=O)c2c[nH]c3c([S+](C)[O-])c(Cl)ccc23)nc(OC)c1CC(F)F (centres unmarked) [Example 279, 6-chloro-N-[5-(2,2-difluoroethyl)-4,6-dimethoxy-pyrimidin-2-yl]-7-methylsulfinyl-1H-indole-3-Sulfonamide]	69 nM
COc1nc(NS(=O)(=O)c2c[nH]c3cc(Cl)ccc23)nc(OC)c1OCF [Example 51, 6-chloro-N-[5-(fluoromethoxy)-4,6-dimethoxy-pyrimidin-2-yl]-1H-indole-3-sulfonamide]	94 nM
COc1nc(NS(=O)(=O)c2c[nH]c3c(F)c(C(F)F)ccc23)nc(OC)c1OC(F)F [Example 249, N-[5-(difluoromethoxy)-4,6-dimethoxy-pyrimidin-2-yl]-6-(difluoromethyl)-7-fluoro-1H-indole-3-sulfonamide]	36 nM
COCCc1c(OC)nc(NS(=O)(=O)c2c[nH]c3cc(Cl)ccc23)nc1OC [Example 66, 6-chloro-N-[4,6-dimethoxy-5-(2-methoxyethyl)pyrimidin-2-yl]-1H-indole-3-sulfonamide]	19 nM
CCOc1nc(NS(=O)(=O)c2c[nH]c3cc(Cl)ccc23)nc(OC)c1Br [Example 13, N-(5-bromo-4-ethoxy-6-methoxy-pyrimidin-2-yl)-6-chloro-1H-indole-3-sulfonamide]	236 nM
COc1nc(NS(=O)(=O)c2c[nH]c3cc(Br)ccc23)ncc1OCC(F)F [Example 143, 6-bromo-N-[5-(2,2-difluoroethoxy)-4-methoxy-pyrimidin-2-yl]-1H-indole-3-sulfonamide]	109 nM
COc1nc(NS(=O)(=O)c2c[nH]c3cc(Cl)ccc23)ncc1CC(C)(F)F [Example 260, 6-chloro-N-[5-(2,2-difluoropropyl)-4-methoxy-pyrimidin-2-yl]-1H-indole-3-sulfonamide]	488 nM
COc1nc(NS(=O)(=O)c2c[nH]c3cc(Cl)ccc23)ncc1CC(F)(F)F [Example 177, 6-chloro-N-[4-methoxy-5-(2,2,2-trifluoroethyl)pyrimidin-2-yl]-1H-indole-3-sulfonamide]	162 nM
COc1nc(NS(=O)(=O)c2csc3nc(Br)ccc23)ncc1OCCF [Example 146, 6-bromo-N-[5-(2-fluoroethoxy)-4-methoxy-pyrimidin-2-yl]thieno[2,3-b]pyridine-3-sulfonamide]	89 nM
COc1nc(NS(=O)(=O)c2c[nH]c3nc(Br)ccc23)nc(OC)c1OC(F)F [Example 172, 6-bromo-N-[5-(difluoromethoxy)-4,6-dimethoxy-pyrimidin-2-yl]-1h-pyrrolo[2,3-b]pyridine-3-sulfonamide]	15 nM
COc1nc(NS(=O)(=O)c2csc3c(F)c(Cl)ccc23)ncc1CCC#N [Example 163, 6-chloro-N-[5-(2-cyanoethyl)-4-methoxy-pyrimidin-2-yl]-7-fluoro-benzothiophene-3-sulfonamide]	216 nM
COc1nc(NS(=O)(=O)c2c[nH]c3c(F)c(Cl)ccc23)ncc1CCC(F)F [Example 207, 6-chloro-N-[5-(3,3-difluoropropyl)-4-methoxy-pyrimidin-2-yl]-7-fluoro-1H-indole-3-sulfonamide]	14 nM
COc1nc(NS(=O)(=O)c2c[nH]c3c2ccc2cccnc23)nc(OC)c1OCCF [Example 117, N-[5-(2-fluoroethoxy)-4,6-dimethoxy-pyrimidin-2-yl]-1H-pyrrolo[3,2-h]quinoline-3-sulfonamide]	30 nM
COc1ccc2c(S(=O)(=O)Nc3nc(OC)c(C)c(OC)n3)c[nH]c2c1 [Example 273, N-(4,6-dimethoxy-5-methyl-pyrimidin-2-yl)-6-methoxy-1h-indole-3-sulfonamide]	128 nM
COc1nc(NS(=O)(=O)c2c[nH]c3cc(Cl)ccc23)ncc1OCCC(F)(F)F [Example 40, 6-chloro-N-[4-methoxy-5-(3,3,3-trifluoropropoxy)pyrimidin-2-yl]-1H-indole-3-sulfonamide]	628 nM
O=S(=O)(Nc1ncc(OCC(F)F)cn1)c1c[nH]c2cc(Cl)ccc12 [Example 34, 6-chloro-N-[5-(2,2-difluoroethoxy)pyrimidin-2-yl]-1H-indole-3-sulfonamide]	924 nM
COc1nc(NS(=O)(=O)c2c[nH]c3cc(Cl)ccc23)nc(CC#N)c1Br [Example 85, N-[5-bromo-4-(cyanomethyl)-6-methoxy-pyrimidin-2-yl]-6-chloro-1H-indole-3-sulfonamide]	623 nM
CCc1c(OC)nc(NS(=O)(=O)c2c[nH]c3cc(Cl)ccc23)nc1OC [Example 16, 6-chloro-N-(5-ethyl-4,6-dimethoxy-pyrimidin-2-yl)-1H-indole-3-sulfonamide]	23 nM
COc1nc(NS(=O)(=O)c2c[nH]c3cc(Br)ccc23)nc(OC)c1OCC(F)F [Example 92, 6-bromo-N-[5-(2,2-difluoroethoxy)-4,6-dimethoxy-pyrimidin-2-yl]-1H-indole-3-sulfonamide]	18 nM
COc1nc(NS(=O)(=O)c2csc3cc(Cl)ccc23)ncc1CCC(F)F [Example 155, 6-chloro-N-[5-(3,3-difluoropropyl)-4-methoxy-pyrimidin-2-yl]benzothiophene-3-sulfonamide]	116 nM
COc1nc(NS(=O)(=O)c2c[nH]c3c(F)c(F)ccc23)ncc1CC(F)F [Example 164, N-[5-(2,2-difluoroethyl)-4-methoxy-pyrimidin-2-yl]-6,7-difluoro-1H-indole-3-sulfonamide]	126 nM

Continued by falling IC50, values first:

IC50	SMILES
20800 nM	COc1nc(NS(=O)(=O)c2c[nH]c3cc(Cl)ccc23)nc(CC2CC2)c1Br [Example 80, N-[5-bromo-4-(cyclopropylmethyl)-6-methoxy-pyrimidin-2-yl]-6-chloro-1H-indole-3-sulfonamide]
16800 nM	COc1nc(NS(=O)(=O)c2c[nH]c3cc(Cl)ccc23)ncc1CCC1COC1 [Example 181, 6-chloro-N-[4-methoxy-5-[2-(oxetan-3-yl)ethyl]pyrimidin-2-yl]-1H-indole-3-sulfonamide]
1160 nM	COc1nc(NS(=O)(=O)c2csc3nc(C(F)F)ccc23)ncc1CC(F)F [Example 166, N-[5-(2,2-difluoroethyl)-4-methoxy-pyrimidin-2-yl]-6-(difluoromethyl)thieno[2,3-b]pyridine-3-sulfonamide]
718 nM	COc1nc(NS(=O)(=O)c2c[nH]c3c(S(C)(=O)=O)c(Cl)ccc23)ncc1CC(F)F [Example 277, 6-chloro-N-[5-(2,2-difluoroethyl)-4-methoxy-pyrimidin-2-yl]-7-mesyl-1h-indole-3-sulfonamide]
642 nM	COc1nc(NS(=O)(=O)c2c[nH]c3c(Cl)cccc23)ncc1CC(F)F [Example 108, 7-chloro-N-[5-(2,2-difluoroethyl)-4-methoxy-pyrimidin-2-yl]-1H-indole-3-sulfonamide]
442 nM	CCc1nc(NS(=O)(=O)c2c[nH]c3cc(Cl)ccc23)nc(OC)c1C [Example 137, 6-chloro-N-(4-ethyl-6-methoxy-5-methyl-pyrimidin-2-yl)-1H-indole-3-sulfonamide]
152 nM	COc1nc(NS(=O)(=O)c2csc3nc(Br)ccc23)ncc1OCC(F)F [Example 145, 6-bromo-N-[5-(2,2-difluoroethoxy)-4-methoxy-pyrimidin-2-yl]thieno[2,3-b]pyridine-3-sulfonamide]
110 nM	COc1nc(NS(=O)(=O)c2c[nH]c3c2ccc2sncc23)ncc1CC(F)F [Example 282, N-[5-(2,2-Difluoroethyl)-4-Methoxy-Pyrimidin-2-Yl]-1H-Pyrrolo[2,3-e][1,2]Benzothiazole-3-Sulfonamide]
89 nM	COc1nc(NS(=O)(=O)c2c[nH]c3nc(Cl)ccc23)nc(OC)c1OC(F)(F)CF [Example 171, 6-chloro-N-[4,6-dimethoxy-5-(1,1,2-trifluoroethoxy)pyrimidin-2-yl]-1H-pyrrolo[2,3-b]pyridine-3-sulfonamide]
78 nM	COc1nc(NS(=O)(=O)c2c[nH]c3cc(Cl)ccc23)nc(OCF)c1Br [Example 83, N-[5-bromo-4-(fluoromethoxy)-6-methoxy-pyrimidin-2-yl]-6-chloro-1H-indole-3-sulfonamide]
50 nM	COc1nc(NS(=O)(=O)c2c[nH]c3cc(F)ccc23)ncc1CC(F)F [Example 140, N-[5-(2,2-difluoroethyl)-4-methoxy-pyrimidin-2-yl]-6-fluoro-1H-indole-3-sulfonamide]
23 nM	COc1nc(NS(=O)(=O)c2c[nH]c3cc(Br)ccc23)ncc1OCCF [Example 25, 6-bromo-N-[5-(2-fluoroethoxy)-4-methoxy-pyrimidin-2-yl]-1H-indole-3-sulfonamide]
19 nM	COc1nc(NS(=O)(=O)c2c[nH]c3cc(Br)ccc23)nc(OC)c1OCC#N [Example 246, 6-bromo-N-[5-(cyanomethoxy)-4,6-dimethoxy-pyrimidin-2-yl]-1H-indole-3-sulfonamide]
18 nM	COc1nc(NS(=O)(=O)c2c[nH]c3c(OC)c(Cl)ccc23)ncc1CCC(F)F [Example 187, 6-chloro-N-[5-(3,3-difluoropropyl)-4-methoxy-pyrimidin-2-yl]-7-methoxy-1H-indole-3-sulfonamide]
